Laboratory results published in patent publication US4393178A, “Fast crystallizing polyester compositions” (priority 1979, dated 1983).
Several values for one entry are separate records, joined by “and”; a condition that tells them apart may be missing. Equal values may be shown once. Where a name gives a salt, the structure may show the parent alone. Read-outs that look alike come from different tables or passages of the source.

Assays:
[1] = Crystallisation peak temperature on heating (Tn), DSC; format: physicochemical; conditions: for Tn (16° C./min): 1% salt deposited from solution on PET; for Tn(composition)-Tn(polyester): PET I.V. 0.73 + 1% salt, 2-roll mill 300 °C 2 min, 10 °C/minute
Description: In one such DSC technique the crystallisation peak temperature difference, Tn(composition)--Tn(polyester) is determined by measuring the crystallisation peak temperatures on heating for the composition in comparison with the polyester of the composition not containing the ionisable salt. The detailed procedure is as follows. Compositions were prepared from the polyester and the additive by mixing on a 2-roll mill at 300° C. for 2 minutes. The sample was taken from the mill and pressed into a film in a compression moulding machine. 10 mg samples of the composition were placed in a capsule, rapidly heated to 290° C. and maintained at that temperature for 1 minute. The capsule was then dropped into water to quench the polymer and prevent crystallisation. The sample was then placed in a Perkin Elmer DSC 2 machine and heated at a rate of 10° C./minute until reaching a temperature of 290° C. The crystallisation peak temperature observed on this heating cycle is recorded and compared with the value for the polyester not containing the additive.
Samples of polyethylene terephthalate (I.V. =0.73) containing 1% of the salts listed in Table 2 were prepared by compounding at 300° C. on a 2-roll mill for 2 minutes. The samples were evaluated to determine Tn(composition-Tn(polyester), the total number of end groups, the number of carboxylate groups and the number of hydroxyl and carboxyl groups.
The salts listed in Table 3 were deposited from solution on the surface of polyethylene terephthalate chip to give a concentration of 1% by weight of salt. The product was dried under vcuum at 96° C. for 3 hours. The compositions were pressed into film using a temperature of 280° C. for 1 minute. The DSC measurements were made after quenching from the melt to prevent crystallisation and using a heating rate of 16° C./minute.
1% by weight of the sodium salt of saccharin was deposited on the surface of granules of a polyethylene terephthalate homopolymer of I.V. =0.73 by evaporating an aqueous solution of the salt from the granules by drying at 96° C. under vacuum for 3 hours. The granules obtained were compression moulded into film by pressing at 280° C. for 60 second. The film was used for measurements of Tn at a heating rate of 16° C./minute.
The effect of the salts listed in Table 4 was determined by taking granules of a polymer of poly(ethylene terephthalate) homopolymer having an intrinsic viscosity of 0.73 and evaporating a solution of the salt in methanol or water from the surface of the granules by drying at 96° C. under vacuum for 3 hours. The proportions of polymer and solution used were such as to give a concentration of 1% of salt by weight of the final dry composition. The granules obtained were compression-moulded into film at 280° C. for various periods of time. The film was used for measurement of Tn as hereinbefore described.
Two samples of polyethylene terephthalate chip (I.V. =0.73) were coated from solution with 1% of the sodium salt of o-hydroxybenzoic acid and the disodium salt of the same acid respectively. After drying for 3 hours in a vacuum oven at 95° C. films were prepared by pressing the products for 1 minute at 280° C.

End group determination = format: physicochemical
Description: The numbers of hydroxyl and carboxyl groups were also determined according to the procedure given in this paper.
[…] The samples were evaluated to determine Tn(composition-Tn(polyester), the total number of end groups, the number of carboxylate groups and the number of hydroxyl and carboxyl groups.

[2] = Degradation constant K (melt degradation performance); format: physicochemical; design: unit not given here; conditions: 1% salt deposited from solution on PET (Examples 13-15)
[3] = cited from earlier work
[4] = Half-crystallisation time (t1/2), isothermal DSC; format: physicochemical
Description: A DSC 2 Perkin Elmer scanning calorimeter was used.
10 mg of the sample of polymer material are placed in a capsule and introduced into the apparatus, wherein the sample is quickly heated to a temperature of 290° C. at which it is maintained during 1 minute.
The molten polymer material is then very quickly cooled by means of liquid air (at a rate of 320° C. per minute) until the crystallisation temperature is reached.
The crystallisation isotherm is registered on a temperature-time graph and the peak appearing on the registered isotherm is taken as the half-crystallisation time (t1/2).

[5] = Degradation constant K (melt degradation performance); format: physicochemical; design: unit not given here; conditions: 1% salt in PET, 2-roll mill 270 °C 5 min; molten state 290 °C
Description: The melt degradation performance is a measure of the extent of degradation under molten conditions. A convenient method of quantifying the performance is by measuring the "K value". A method for determining this value in the molten state using an Instron Capillary rheometer is given in a paper by J. Devaux et al in Makromol.
This method is carried out on samples prepared by reacting the salt with the polyester on a 2 roll-mill at a temperature above the melting point of the polyester for 5 minutes and then pressing the product obtained into a 2 mm thick sheet using the same temperature for 3 minutes before cooling to room temperature. The method is described for polyethylene terephthalate but can be readily adapted for other polyesters.
For polyethylene terephthalate the K value in the presence of salt should be less than 60.

[6] = ΔT = Tc(cooling) - Tn(heating), DSC; format: physicochemical; conditions: 1% salt in PET, 2-roll mill 270 °C 5 min; 10 °C/minute
Description: An alternative method for assessing the effectiveness of nucleation of an additive is to compare the difference between the value of the crystallisation peak on cooling (Tc) with that on heating (Tn) for a composition containing an ionisable salt. The value obtained from this comparison, Tc(cooling) -Tn(heating) is termed ΔT. […] Samples of polyester together with 1% of the salt under test were mixed in a 2-roll mill at 270° C. for 5 minutes. The sample produced was pressed into 2 mm thick sheets at 270° C. for 3 minutes and then cooled to room temperature. 10 mg of the sample was placed in a capsule and rapidly heated to 290° C. After maintaining this temperature for 1 minute the capsule was quenched in water. The crystallisation peak temperatures on heating (Tn) and cooling (Tc) were determined using heating and cooling rates of 10° C./minute on a Perkin Elmer DSC 2 machine.

[7] = Solubility parameter δ of the acid; conditions: product for the acid
[8] = Crystallisation peak temperature on heating (Tn), DSC, block copolymer; format: physicochemical; conditions: 1% salt from solution on block copolymer; heating rate 16 °C/minute
Description: A block copolymer containing 5% by weight of polyethylene glycol units of molecular weight 1540 in chip form was blended with a solution of the sodium salt of o-chlorobenzoic acid to give a salt concentration of 1% by weight of the polyester. Samples were prepared for DSC analysis using the procedure of Example 15.
The polymer used in Example 16 and 1% of the disodium salt of o-hydroxy benzoic acid were compounded on a 2-roll mill at 270° C. for 2 minutes. […] (measured at a heating rate of 10° C./minute).

[9] = pressed 280 °C 1 minute, heating rate 16 °C/minute
[10] = 1% salt deposited from solution on PET chip, pressed 280 °C 1 minute
[11] = 110 °C, 1% salt in PET, 2-roll mill 270 °C 5 min, after melting 1 minute at 290 °C
[12] = 120 °C, 1% salt in PET, 2-roll mill 270 °C 5 min, after melting 1 minute at 290 °C
[13] = PET I.V. 0.73 + 1% salt, 2-roll mill 300 °C 2 min
[14] = acid from which the salt is derived, in water

SMILES | t1/2 (sec) 110° C. [4, 11] | t1/2 (sec) 120° C. [4, 12] | δ × pKH.sbsb.2O [7] | K [5] | ΔT [6] | pKH.sbsb.2O [3, 14] | other results
O=C(O)c1ccco1 [Sodium salt of 2-furoic acid] |  |  |  |  |  |  | Tn (16° C./min) [1, 9]: 127 °C; End Groups --COOH (End group determination; [10]): 29 moles × 10^-6 g^-1; End Groups --OH (End group determination; [10]): 62 moles × 10^-6 g^-1; End Groups Total from solution I.V. (End group determination; [10]): 121 moles × 10^-6 g^-1; K [2]: 65
O=S(=O)(O)c1ccccc1 [Sodium benzene sulphonate, reference compound] |  |  |  |  |  |  | Tn [1]: 146 °C and 141.5 °C; Dissociation Constant ([3]; water): 2 × 10^-1
O=C(O)c1ccc(Cl)cc1Cl [2,4-dichlorobenzoic acid] | 60 s | 35 s | 34 | 65 | 109 °C | 2.8 | Tn(composition)-Tn(polyester) [1]: 23 °C; % of carboxylate end group (End group determination; [13]): 16.7%; End Groups --COOH (End group determination; [13]): 67 moles × 10^-6 g^-1; End Groups --OH (End group determination; [13]): 55 moles × 10^-6 g^-1; End Groups Carboxylate (End group determination; [13]): 32 moles × 10^-6 g^-1; End Groups Total from solution I.V. (End group determination; [13]): 192 moles × 10^-6 g^-1
O=C(O)c1cc(O)ccc1O [2,5-dihydroxy benzoic acid] |  |  |  | 22 | 103 °C | 3 | t1/2 (sec) 110° C. [4]: 85 s; t1/2 (sec) 120° C. [4]: 48 s
O=C(O)c1ccc(Oc2ccccc2)cc1 [para-oxyphenylbenzoic acid] |  |  | 47 | 40 | 105 °C | 3.5 | t1/2 (sec) 110° C. [4]: 73 s; t1/2 (sec) 120° C. [4]: 38 s
O=C(O)c1ccccc1O [ortho-hydroxy benzoic acid] |  |  |  | 26 | 105 °C |  | t1/2 (sec) 110° C. [4]: 80 s; t1/2 (sec) 120° C. [4]: 40 s; Tn (16° C./min) ([1]; pressed 280 °C 1 minute, heating rate 16 °C/minute, listed as sodium salt of o-hydroxybenzoic acid): 114 °C; K ([2]; listed as sodium salt of o-hydroxybenzoic acid): 26
O=C(O)c1ccc(O)cc1O [2,4-dihydroxy benzoic acid] | 95 s | 45 s | 47 | 35 | 99 °C | 3.2 | 
O=C(O)c1cc([N+](=O)[O-])cc([N+](=O)[O-])c1 [3,5-dinitrobenzoic acid] | 85 s | 45 s | 38 | 44 | 102 °C | 2.8 | 
O=C(O)c1cccc(Cl)c1 [meta-chlorobenzoic acid] |  |  | 47 | 31 | 107 °C | 3.8 | t1/2 (sec) 110° C. [4]: 63 s; t1/2 (sec) 120° C. [4]: 40 s
O=C1NS(=O)(=O)c2ccccc21 [sodium salt of saccharin] |  |  |  |  |  |  | Tn (16° C./min) [1, 9]: 112 °C; K [2]: 9
O=C(O)c1cccc([N+](=O)[O-])c1 [meta-nitrobenzoic acid] |  |  | 30 | 20 | 106 °C |  | t1/2 (sec) 110° C. [4]: 65 s; t1/2 (sec) 120° C. [4]: 45 s; pKH.sbsb.2O ([3]; water): 2.2
O=C(O)c1cccs1 [Sodium salt of 2-thiophencarboxylic acid] |  |  |  |  |  |  | Tn(comp.)-Tn(PET) (16° C./min) ([1]; 1% salt deposited from solution on PET chip, pressed 280 °C 1 minute, heating rate 16 °C/minute): 29 °C; Tn (16° C./min) [1, 9]: 112 °C; End Groups --COOH (End group determination; [10]): 24 moles × 10^-6 g^-1; End Groups --OH (End group determination; [10]): 59 moles × 10^-6 g^-1; End Groups Total from solution I.V. (End group determination; [10]): 145 moles × 10^-6 g^-1; K [2]: 15
O=C(O)c1c(O)cc(O)cc1O [2,4,6-dihydroxy benzoic acid] | 110 s | 50 s | 26 | 37 | 97 °C | 1.7 | 

The next lines start with results.

t1/2 (sec) 110° C. [4, 11] | t1/2 (sec) 120° C. [4, 12] | δ × pKH.sbsb.2O [7] | SMILES | K [5] | ΔT [6] | pKH.sbsb.2O [3, 14] | other results
65 s | 40 s | 29 | O=C(O)c1cc([N+](=O)[O-])ccc1Cl [2-chloro-5-nitrobenzoic acid] | 52 | 108 °C |  | pKH.sbsb.2O ([3]; water): 2.2
70 s | 38 s | 50 | O=C(O)c1ccc(F)cc1 [para fluorobenzoic acid] | 60 | 104 °C | 4.1 | 
65 s | 36 s | 37 | O=C(O)c1ccccc1Cl [ortho-chlorobenzoic acid] | 32 | 108 °C |  | Tn(composition)-Tn(polyester) [1]: 26 °C; % of carboxylate end group (End group determination; [13]): 22%; End Groups --COOH (End group determination; [13]): 45 moles × 10^-6 g^-1; End Groups --OH (End group determination; [13]): 55 moles × 10^-6 g^-1; End Groups Carboxylate (End group determination; [13]): 37 moles × 10^-6 g^-1; End Groups Total from solution I.V. (End group determination; [13]): 167 moles × 10^-6 g^-1; Tn [8]: 102 °C; pKH.sbsb.2O ([3]; water): 3
75 s | 54 s | 46 | O=C(O)c1ccc([N+](=O)[O-])cc1 [para-nitrobenzoic acid] | 79 | 102 °C |  | pKH.sbsb.2O ([3]; water): 3.4
165 s | 55 s | 54 | O=C(O)c1cccc(O)c1 [metra-hydroxy benzoic acid] | 86 | 91 °C | 3.9 | 
